The values that follow come from US20260232662A1, “MIR-124 INDUCER, AND PREPARATION METHOD THEREFOR AND USE THEREOF” (NANJING SYNNOCARE PHARMACEUTICAL TECHNOLOGY CO., LTD., priority 2023, published 2026).

This assay relates to miR-124. Put plainly: Induction of miR-124 expression in PBMC cells (qPCR). It counts as cell-based. As to conditions: Homo sapiens, 72 h, 0.1 μM compound, human PBMCs stimulated with PMA/ionomycin, miR-191 reference gene, read-out: miR-124 expression, Fold change vs DMSO. On the procedure: This study evaluated the ability of the compound of the present invention to influence miR-124 transcriptional activity in vitro. The experiment analyzed miR-124 expression in human PBMCs (Sailybio) using quantitative PCR (qPCR).
Thawed human PBMCs (1 mL) were added to 19 mL of culture medium (RPMI1640+10% hFBS+1‰ 2-mercaptoethanol) and the PBMCs were incubated in a cell culture incubator for 30 minutes. The PBMCs were collected and the cells (3.0*10^6 cells/well/3 mL) were resuspended in medium containing PMA (10 ng/mL; Invivogen) and ionomycin (200 ng/mL; Invivogen). The cells were incubated in a 6-well plate for 48 hours. Diluted compound was added to the cells to achieve a final concentration of 0.1 μM. After 72 hours, the samples were centrifuged and the cells were collected.
Total miRNA was extracted from the cells using the MiPure Cell/Tissue miRNA Kit (Vazyme) according to the manufacturer's instructions, followed by purification. The purified samples were treated with genomic DNA elimination buffer, and reverse transcription was performed using a GeneAmp PCR System. The resulting cDNA was subjected to quantitative real-time PCR (qPCR) analysis on a QuantStudio™ 7 Flex Real-Time PCR System. Data analysis was performed using the QuantStudio 7 software with default settings to automatically determine Ct values, and the results were exported. In this assay, miR-191 was used as the reference gene, and the DMSO-treated group served as the control. The relative expression of miR-124 was calculated using the following formula: […]
On the technique in general: Real-time PCR tracks product formation cycle by cycle.
For the compound `Fc1cc(Nc2nc3cccc(F)c3n3ccnc23)ccc1OC(F)(F)F` [Compound B76, 9-fluoro-N-(3-fluoro-4-(trifluoromethoxy)phenyl) imidazolo[1,2-a] quinoxalin-4-amine], the fold induction at 0.1 µM worked out at 18.5. With `FC(F)(F)Oc1ccc(NC2=Nc3c(Cl)cc(Cl)cc3N3CCN=C23)cc1Cl` [Compound 87] the figure was 15.8; with `FC(F)(F)Oc1ccc(NC2=Nc3c(Br)cccc3N3CCN=C23)cc1` [Compound 79], 17.8; with `Fc1cccc2nc(Nc3ccc(C(F)(F)F)cc3)c3nccn3c12` [Compound B78, 9-fluoro-N-(4-(trifluoromethyl)phenyl) imidazolo[1,2-a] quinoxalin-4-amine], 14.9. With `FC(F)(F)Oc1ccc(Nc2nc3cc(Cl)cc(Cl)c3n3ccnc23)cc1` [Compound B21, 7,9-dichloro-N-(4-(trifluoromethoxy)phenyl)imidazolo [1,2-a]quinoxalin-4-amine] the figure was 35.2; with `Fc1cc(Nc2nc3c(Br)cccc3n3ccnc23)ccc1OC(F)(F)F` [Compound 49], 19.5; with `Fc1cc(NC2=Nc3c(Br)cccc3N3CCN=C23)ccc1OC(F)(F)F` [Compound 83], 18.3. With `Fc1ccc2c(c1)nc(Nc1ccc(OC(F)(F)F)cc1)c1nccn12` [Compound B8, 7-fluoro-N-(4-(trifluoromethoxy)phenyl)imidazolo [1,2-a]quinoxalin-4-amine] the figure was 33.5. As for `Fc1cc(Cl)cc2nc(Nc3ccc(OC(F)(F)F)c(Cl)c3)c3nccn3c12` [Compound B89, 7-chloro-9-fluoro-N-(3-chloro-4-(trifluoromethoxy)phenyl) imidazolo[1,2-a] quinoxalin-4-amine], the fold induction at 0.1 µM is 22.3. The figure for `FC(F)(F)Oc1ccc(Nc2nc3c(Br)cccc3n3ccnc23)cc1Cl` [Compound 50] is 18.5. As for `Fc1cc(Nc2nc3ccc(Cl)cc3n3ccnc23)ccc1C(F)(F)F` [Compound B104, 8-chloro-N-(3-fluoro-4-(trifluoromethyl)phenyl) imidazolo[1,2-a] quinoxalin-4-amine], the fold induction at 0.1 µM is 28.1. The figure for `Fc1cccc2nc(Nc3ccc(OC(F)(F)F)cc3)c3nccn3c12` [Compound B2, 9-fluoro-N-(4-(trifluoromethoxy)phenyl)imidazolo [1,2-a]quinoxalin-4-amine] is 37.4. With `FS(F)(F)(F)(F)c1ccc(Nc2nc3c(Cl)cccc3n3ccnc23)cc1` [Compound 22] the figure was 15.3. The figure for `Fc1cc(Nc2nc3ccc(Cl)cc3n3ccnc23)ccc1OC(F)(F)F` [Compound B101, 8-chloro-N-(3-fluoro-4-(trifluoromethoxy)phenyl) imidazolo[1,2-a] quinoxalin-4-amine] is 24.7. Turning to `Fc1cc(Nc2nc3cccc(F)c3n3ccnc23)ccc1C(F)(F)F` [Compound B79, 9-fluoro-N-(3-fluoro-4-(trifluoromethyl)phenyl) imidazolo[1,2-a] quinoxalin-4-amine], the fold induction at 0.1 µM turned out to be 22.3. The figure for `Fc1cccc2c1nc(Nc1ccc(C(F)(F)F)c(Cl)c1)c1nccn12` [Compound 47] is 9.86.

For `Fc1cc(Cl)cc2nc(Nc3ccc4c(c3)OC(F)(F)O4)c3nccn3c12` [Compound B87, 7-chloro-9-fluoro-N-(2,2-difluorobenzo[d] [1,3]dihydroxy-5-yl)imidazo[1,2-a] quinoxalin-4-amine], the fold induction at 0.1 µM came out at 15.8. The figure for `Fc1cc(NC2=Nc3c(F)cc(Cl)cc3N3CCN=C23)ccc1OC(F)(F)F` [Compound 92] is 18.8. In the case of `FC(F)(F)Oc1ccc(NC2=Nc3cc(Cl)ccc3N3CCN=C23)cc1Cl` [Compound B150, 7-chloro-N-(3-chloro-4-(trifluoromethoxy)phenyl)-1,2-dihydroimidazo[1,2-a] quinoxalin-4-amine], the fold induction at 0.1 µM came to 26.4. With `FC(F)(F)c1ccc(Nc2nc3cc(Cl)ccc3n3ccnc23)cc1` [Compound B109, 7-chloro-N-(4-(trifluoromethyl)phenyl) imidazolo[1,2-a] quinoxalin-4-amine] the figure was 26.4; with `FC(F)(F)c1ccc(Nc2nc3c(Cl)cccc3n3ccnc23)cc1` [Compound 16], 13.4; with `Fc1cc(NC2=Nc3c(Br)cccc3N3CCN=C23)ccc1C(F)(F)F` [Compound 81], 15.3. As for `FC(F)(F)Oc1ccc(NC2=Nc3cc(Cl)cc(Cl)c3N3CCN=C23)cc1Cl` [Compound B138, 7,9-dichloro-N-(3-chloro-4-(trifluoromethoxy)phenyl)-1,2-dihydroimidazo[1,2-a] quinoxalin-4-amine], the fold induction at 0.1 µM is 29.9. As to `FC(F)(F)c1ccc(NC2=Nc3cccc(Cl)c3N3CCN=C23)cc1Cl` [Compound B123, 9-chloro-N-(3-chloro-4-(trifluoromethyl)phenyl)-1,2-dihydroimidazo[1,2-a] quinoxalin-4-amine], the fold induction at 0.1 µM worked out at 24.3.

With `FC(F)(F)Oc1ccc(Nc2nc3ccc(Cl)c(Cl)c3n3ccnc23)cc1` [Compound B16, 8,9-dichloro-N-(4-(trifluoromethoxy)phenyl)imidazolo [1,2-a]quinoxalin-4-amine], the fold induction at 0.1 µM stood at 33.4. With `FC(F)Oc1ccc(Nc2nc3cccc(Cl)c3n3ccnc23)cc1` [Compound B59, 9-chloro-N-(4-(difluoromethoxy)phenyl)imidazolo [1,2-a]quinoxalin-4-amine] the figure was 25.4.

In the case of `FC1(F)Oc2ccc(Nc3nc4c(Cl)cccc4n4ccnc34)cc2O1` [Compound 17], the fold induction at 0.1 µM is 19.

As to `Fc1cc(Nc2nc3cccc(Cl)c3n3ccnc23)ccc1C(F)(F)F` [Compound B53, 9-chloro-N-(3-Fluoro-4-(trifluoromethyl)phenyl)imidazolo [1,2-a]quinoxalin-4-amine], the fold induction at 0.1 µM came out at 36.8. The figure for `FC(F)(F)Oc1ccc(Nc2nc3cc(Cl)c(Cl)cc3n3ccnc23)cc1` [Compound B24, 7,8-dichloro-N-(4-(trifluoromethoxy)phenyl)imidazolo [1,2-a]quinoxalin-4-amine] is 26.7; for `FC(F)(F)c1ccc(Nc2nc3c(Cl)cc(Cl)cc3n3ccnc23)cc1` [Compound 62] it is 15.5. The figure for `Fc1cc(NC2=Nc3cccc(Cl)c3N3CCN=C23)ccc1OC(F)(F)F` [Compound B119, 9-chloro-N-(3-fluoro-4-(trifluoromethoxy)phenyl)-1,2-dihydroimidazo[1,2-a] quinoxalin-4-amine] is 25.4. The figure for `Fc1cccc2c1nc(Nc1ccc(C(F)(F)F)cc1)c1nccn12` [Compound 45] is 17.9. Regarding `Cn1c(=O)c(Nc2ccc3c(c2)OC(F)(F)O3)nc2c(Cl)cccc21` [Compound 12], the fold induction at 0.1 µM was found to be 22. The figure for `FC(F)(F)Oc1ccc(NC2=Nc3ccc(Cl)cc3N3CCN=C23)cc1` [Compound B142, 8-chloro-N-(4-(trifluoromethoxy)phenyl)-1,2-dihydroimidazo[1,2-a] quinoxalin-4-amine] is 25.6; for `Fc1cc(NC2=Nc3cc(Cl)cc(Cl)c3N3CCN=C23)ccc1OC(F)(F)F` [Compound B137, 7,9-dichloro-N-(3-fluoro-4-(trifluoromethoxy)phenyl)-1,2-dihydroimidazo[1,2-a] quinoxalin-4-amine] it is 31.1; for `FC(F)(F)c1ccc(Nc2nc3ccc(Cl)cc3n3ccnc23)cc1Cl` [Compound B105, 8-chloro-N-(3-chloro-4-(trifluoromethyl)phenyl) imidazolo[1,2-a] quinoxalin-4-amine] it is 27.8.

For `FC(F)(F)Oc1ccc(NC2=Nc3ccc(Cl)cc3N3CCN=C23)cc1Cl` [Compound B144, 8-chloro-N-(3-chloro-4-(trifluoromethoxy)phenyl)-1,2-dihydroimidazo[1,2-a] quinoxalin-4-amine], the fold induction at 0.1 µM was 27.8. As to `Fc1cccc2c1nc(Nc1ccc(OC(F)(F)F)cc1)c1nccn12` [Compound 41], the fold induction at 0.1 µM is 24.4. The figure for `FC(F)(F)c1ccc(NC2=Nc3c(Br)cccc3N3CCN=C23)cc1` [Compound 80] is 19.8; for `FC(F)(F)Sc1ccc(Nc2nc3cc(Cl)cc(Cl)c3n3ccnc23)cc1` [Compound B99, 7,9-dichloro-N-(4-(trifluoromethylthio)phenyl) imidazolo[1,2-a] quinoxalin-4-amine] it is 17.6; for `Fc1ccc2nc(Nc3ccc(OC(F)(F)F)cc3)c3nccn3c2c1Cl` [Compound B17, 9-chloro-8-fluoro-N-(4-(trifluoromethoxy)phenyl)imidazolo [1,2-a]quinoxalin-4-amine] it is 31.9. The figure for `Fc1cccc2c1nc(Nc1ccc3c(c1)OC(F)(F)O3)c1nccn12` [Compound 42] is 14.1.
